Drawing on PubChem BioAssay AID270 (DTP/NCI, 2004), this text covers T/C for 17 compounds.

Where “and” joins values, the source holds several entries; their conditions need not be identical. Identical values can stand only once. Results filed as inconclusive are left out.

For this assay, the system named is BDF1 mice, s.c. Lewis lung carcinoma, T/C %. Nature of the assay: NCI In Vivo Anticancer Drug Screen. Data for tumor model Lewis Lung Carcinoma (subcutaneous) in B6D2F1 (BDF1) mice. The gist of the method: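 The value reflects a ratio in which the treated cohort's survival time or tumour size is compared against mice receiving only vehicle.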
The mark [1] stands for this setting: endpoint: median survival time, dose: 0.5 mg/kg/injection, schedule: Q01DX009 (ip), vehicle: Klucel (hydroxypropylcellulose) (HPC), higher = longer survival.
Setting [2] is: endpoint: median survival time, dose: 1.0 mg/kg/injection, schedule: Q01DX009 (ip), vehicle: Klucel (hydroxypropylcellulose) (HPC), higher = longer survival.
[3] abbreviates: endpoint: mean tumor weight, dose: 400.0 mg/kg/injection, schedule: Q01DX011 (ip), vehicle: saline, higher = larger tumour.
[4] abbreviates: endpoint: mean tumor weight, dose: 50.0 mg/kg/injection, schedule: Q01DX011 (ip), vehicle: saline, higher = larger tumour.
Setting [5] is: endpoint: median survival time, dose: 2.5 mg/kg/injection, schedule: Q01DX009 (ip), vehicle: Klucel (hydroxypropylcellulose) (HPC), higher = longer survival.
[6] abbreviates: endpoint: median survival time, dose: 5.0 mg/kg/injection, schedule: Q01DX009 (ip), vehicle: Klucel (hydroxypropylcellulose) (HPC), higher = longer survival.
Setting [7] is: endpoint: median survival time, dose: 12.5 mg/kg/injection, schedule: Q01DX009 (ip), vehicle: Klucel (hydroxypropylcellulose) (HPC), higher = longer survival.
[8] abbreviates: endpoint: mean tumor weight, dose: 100.0 mg/kg/injection, schedule: Q01DX011 (ip), vehicle: saline, higher = larger tumour.

As for `O=C1CC(c2ccc(OCN(CCCl)CCCl)cc2)CC(=O)C1CN(CCCl)CCCl` (stereo not given), the T/C is 101 % of control under setting [1]; 123 % of control under setting [2]; 116 % of control (endpoint: median survival time, dose: 2.0 mg/kg/injection, schedule: Q01DX009 (ip), vehicle: Klucel (hydroxypropylcellulose) (HPC), higher = longer survival); 123 % of control (endpoint: median survival time, dose: 4.0 mg/kg/injection, schedule: Q01DX009 (ip), vehicle: Klucel (hydroxypropylcellulose) (HPC), higher = longer survival); 115 % of control (endpoint: median survival time, dose: 8.0 mg/kg/injection, schedule: Q01DX009 (ip), vehicle: Klucel (hydroxypropylcellulose) (HPC), higher = longer survival).
In the case of `CN(C)CCCNc1c2ccccc2nc2cccc([N+](=O)[O-])c12`, the T/C by setting is: (endpoint: median survival time, dose: 2.0 micrograms/kg/injection, schedule: Q01DX009 (ip), vehicle: saline, higher = longer survival) 98 % of control and 118 % of control; (endpoint: median survival time, dose: 8.0 micrograms/kg/injection, schedule: Q01DX009 (ip), vehicle: saline, higher = longer survival) 89 % of control; (endpoint: median survival time, dose: 16.0 micrograms/kg/injection, schedule: Q01DX009 (ip), vehicle: saline, higher = longer survival) 109 % of control; (endpoint: median survival time, dose: 32.0 micrograms/kg/injection, schedule: Q01DX009 (ip), vehicle: saline, higher = longer survival) 95 % of control; (endpoint: median survival time, dose: 125.0 micrograms/kg/injection, schedule: Q01DX009 (ip), vehicle: saline, higher = longer survival) 93 % of control.
Turning to `C=C(C)C(=O)O[C@H]1[C@H]2[C@H](OC(=O)[C@H]2C)[C@H](O)[C@@H](C)[C@@H]2C=CC(=O)[C@]21C`, the T/C (endpoint: median survival time, dose: 15.0 mg/kg/injection, schedule: Q01DX009 (ip), vehicle: saline, higher = longer survival) was 113 % of control and the T/C (endpoint: median survival time, dose: 30.0 mg/kg/injection, schedule: Q01DX009 (ip), vehicle: saline, higher = longer survival) is 104 % of control.
Consider `CCOC(=O)NC`, for which the T/C (endpoint: mean tumor weight, dose: 177.0 mg/kg/injection, schedule: Q01DX011 (ip), vehicle: saline, higher = larger tumour) is 87 % of control; the T/C (endpoint: mean tumor weight, dose: 266.0 mg/kg/injection, schedule: Q01DX011 (ip), vehicle: saline, higher = larger tumour) was 83 % of control; the T/C under setting [3] is 62 % of control; the T/C (endpoint: mean tumor weight, dose: 600.0 mg/kg/injection, schedule: Q01DX011 (ip), vehicle: saline, higher = larger tumour) is 44 % of control.
On to `CS(=O)(=O)OCC(O)C(O)C(O)C(O)COS(C)(=O)=O` (stereo not given), for which the T/C under setting [4] is 86 % of control and 97 % of control; the T/C (endpoint: mean tumor weight, dose: 200.0 mg/kg/injection, schedule: Q01DX011 (ip), vehicle: saline, higher = larger tumour) was 54 % of control and 60 % of control; the T/C under setting [3] is 58 % of control.
`O=[N+]([O-])c1cc([N+](=O)[O-])c(Br)cc1Cl`: the T/C by setting is: under setting [5], 104 % of control; under setting [6], 97 % of control; (endpoint: median survival time, dose: 10.0 mg/kg/injection, schedule: Q01DX009 (ip), vehicle: Klucel (hydroxypropylcellulose) (HPC), higher = longer survival) 105 % of control.
Take `CCO/C=C1\SC(=S)N(c2ccccc2OC)C1=O`: the T/C (endpoint: median survival time, dose: 1.56 mg/kg/injection, schedule: Q01DX009 (ip), vehicle: Klucel (hydroxypropylcellulose) (HPC), higher = longer survival) is 100 % of control; the T/C (endpoint: median survival time, dose: 3.12 mg/kg/injection, schedule: Q01DX009 (ip), vehicle: Klucel (hydroxypropylcellulose) (HPC), higher = longer survival) was 98 % of control; the T/C (endpoint: median survival time, dose: 6.25 mg/kg/injection, schedule: Q01DX009 (ip), vehicle: Klucel (hydroxypropylcellulose) (HPC), higher = longer survival) was 109 % of control; the T/C under setting [7] is 101 % of control.
For the compound `N/C(=N\Cl)C(Cl)(Cl)Cl`, the T/C was 101 % of control (endpoint: median survival time, dose: 6.25 mg/kg/injection, schedule: Q01DX009 (ip), vehicle: other, higher = longer survival); 110 % of control (endpoint: median survival time, dose: 12.5 mg/kg/injection, schedule: Q01DX009 (ip), vehicle: other, higher = longer survival); 100 % of control (endpoint: median survival time, dose: 25.0 mg/kg/injection, schedule: Q01DX009 (ip), vehicle: other, higher = longer survival); 96 % of control (endpoint: median survival time, dose: 50.0 mg/kg/injection, schedule: Q01DX009 (ip), vehicle: other, higher = longer survival).
Consider `CC[C@H]1CN2CCc3cc(OC)c(OC)cc3[C@@H]2C[C@@H]1C[C@H]1NCCc2c1[nH]c1ccc(O)cc21`, for which the T/C is 103 % of control (endpoint: median survival time, dose: 0.25 mg/kg/injection, schedule: Q01DX009 (ip), vehicle: Klucel (hydroxypropylcellulose) (HPC), higher = longer survival); 93 % of control under setting [1]; 90 % of control under setting [2].
Turning to `C=C1CC/C=C(\C)CCC2C1CC2(C)C` (stereo not given), the T/C reads like this: (endpoint: mean tumor weight, dose: 25.0 mg/kg/injection, schedule: Q01DX011 (ip), vehicle: saline, higher = larger tumour) 94 % of control; under setting [4], 88 % of control; under setting [8], 45 % of control.
Consider `O=C(O)CP(=O)(O)O`, for which the T/C (endpoint: median survival time, dose: 4.0 mg/kg/injection, schedule: Q01DX009 (ip), vehicle: saline, higher = longer survival) was 105 % of control; the T/C (endpoint: median survival time, dose: 8.0 mg/kg/injection, schedule: Q01DX009 (ip), vehicle: saline, higher = longer survival) is 97 % of control; the T/C (endpoint: median survival time, dose: 16.0 mg/kg/injection, schedule: Q01DX009 (ip), vehicle: saline, higher = longer survival) was 106 % of control; the T/C (endpoint: median survival time, dose: 32.0 mg/kg/injection, schedule: Q01DX009 (ip), vehicle: saline, higher = longer survival) was 91 % of control; the T/C (endpoint: median survival time, dose: 64.0 mg/kg/injection, schedule: Q01DX009 (ip), vehicle: saline, higher = longer survival) was 87 % of control; the T/C (endpoint: median survival time, dose: 128.0 mg/kg/injection, schedule: Q01DX009 (ip), vehicle: saline, higher = longer survival) is 86 % of control.
Take `O=c1ccc2ccccc2o1`: the T/C by setting is: (endpoint: mean tumor weight, dose: 110.0 mg/kg/injection, schedule: Q01DX011 (ip), vehicle: carboxymethylcellulose (CMC), higher = larger tumour) 57 % of control; (endpoint: mean tumor weight, dose: 165.0 mg/kg/injection, schedule: Q01DX011 (ip), vehicle: carboxymethylcellulose (CMC), higher = larger tumour) 63 % of control.
`O=C1C=CC(=O)c2c(Cl)ccc(O)c21`: the T/C is 100 % of control (endpoint: median survival time, dose: 0.63 mg/kg/injection, schedule: Q01DX009 (ip), vehicle: Klucel (hydroxypropylcellulose) (HPC), higher = longer survival); 104 % of control (endpoint: median survival time, dose: 1.25 mg/kg/injection, schedule: Q01DX009 (ip), vehicle: Klucel (hydroxypropylcellulose) (HPC), higher = longer survival); 102 % of control under setting [5]; 98 % of control under setting [6].
With `COc1ccc(OCC(O)CN2CCN(c3ccc(Cl)cc3)CC2)cc1` (stereo not given), the T/C under setting [7] is 90 % of control; the T/C (endpoint: median survival time, dose: 25.0 mg/kg/injection, schedule: Q01DX009 (ip), vehicle: Klucel (hydroxypropylcellulose) (HPC), higher = longer survival) is 87 % of control; the T/C (endpoint: median survival time, dose: 50.0 mg/kg/injection, schedule: Q01DX009 (ip), vehicle: Klucel (hydroxypropylcellulose) (HPC), higher = longer survival) is 96 % of control; the T/C (endpoint: median survival time, dose: 100.0 mg/kg/injection, schedule: Q01DX009 (ip), vehicle: Klucel (hydroxypropylcellulose) (HPC), higher = longer survival) is 90 % of control; the T/C (endpoint: median survival time, dose: 200.0 mg/kg/injection, schedule: Q01DX009 (ip), vehicle: Klucel (hydroxypropylcellulose) (HPC), higher = longer survival) is 89 % of control.
Turning to `CN1C2CCC1CC(OC(=O)C(CO)c1ccccc1)C2` (stereo not given), the T/C by setting is: (endpoint: mean tumor weight, dose: 12.5 mg/kg/injection, schedule: Q01DX011 (ip), vehicle: saline, higher = larger tumour) 92 % of control; under setting [4], 72 % of control; under setting [8], 154 % of control.
For the compound `Cc1cc(NCCCCCCNc2cc(C)nc3ccc(N)cc23)c2cc(N)ccc2n1`, the T/C is 75 % of control (endpoint: median tumor weight (est.), dose: 18.75 mg/kg/injection, schedule: Q01DX009 (ip), vehicle: Klucel (hydroxypropylcellulose) (HPC), higher = larger tumour); 54 % of control (endpoint: median tumor weight (est.), dose: 37.5 mg/kg/injection, schedule: Q01DX009 (ip), vehicle: Klucel (hydroxypropylcellulose) (HPC), higher = larger tumour); 90 % of control (endpoint: median tumor weight (est.), dose: 37.5 mg/kg/injection, schedule: Q01DX009 (oral), vehicle: Klucel (hydroxypropylcellulose) (HPC), higher = larger tumour); 27 % of control (endpoint: median tumor weight (est.), dose: 75.0 mg/kg/injection, schedule: Q01DX009 (ip), vehicle: Klucel (hydroxypropylcellulose) (HPC), higher = larger tumour); 102 % of control (endpoint: median tumor weight (est.), dose: 75.0 mg/kg/injection, schedule: Q01DX009 (oral), vehicle: Klucel (hydroxypropylcellulose) (HPC), higher = larger tumour); 102 % of control (endpoint: median tumor weight (est.), dose: 150.0 mg/kg/injection, schedule: Q01DX009 (oral), vehicle: Klucel (hydroxypropylcellulose) (HPC), higher = larger tumour). Further, the T/C reads like this: (endpoint: median tumor weight (est.), dose: 300.0 mg/kg/injection, schedule: Q01DX009 (oral), vehicle: Klucel (hydroxypropylcellulose) (HPC), higher = larger tumour) 84 % of control; (endpoint: median tumor weight (est.), dose: 600.0 mg/kg/injection, schedule: Q01DX009 (oral), vehicle: Klucel (hydroxypropylcellulose) (HPC), higher = larger tumour) 83 % of control.
`CC(=O)OC(C)(C)/C=C/C(=O)[C@](C)(O)[C@H]1[C@H](O)C[C@@]2(C)[C@@H]3CC=C4[C@@H](C[C@H](O)C(=O)C4(C)C)[C@]3(C)C(=O)C[C@]12C`: the T/C is 69 % of control (endpoint: mean tumor weight, dose: 0.16 mg/kg/injection, schedule: Q01DX011 (ip), vehicle: saline, higher = larger tumour); 53 % of control (endpoint: mean tumor weight, dose: 0.25 mg/kg/injection, schedule: Q01DX011 (ip), vehicle: saline, higher = larger tumour); 83 % of control (endpoint: mean tumor weight, dose: 0.38 mg/kg/injection, schedule: Q01DX011 (ip), vehicle: saline, higher = larger tumour); 67 % of control (endpoint: mean tumor weight, dose: 0.4 mg/kg/injection, schedule: Q01DX011 (ip), vehicle: carboxymethylcellulose (CMC), higher = larger tumour); 48 % of control (endpoint: mean tumor weight, dose: 0.4 mg/kg/injection, schedule: Q01DX011 (ip), vehicle: saline, higher = larger tumour); 42 % of control (endpoint: mean tumor weight, dose: 0.8 mg/kg/injection, schedule: Q01DX011 (ip), vehicle: saline, higher = larger tumour).
